According to patent publication US11324725B2, “Compositions and methods for the inhibition of pruritus” (The United States of America, as represented by the …, priority 2017, dated 2022):
Entries after “also recorded” stand apart in the source; their conditions may differ.

Key:
[1] = biological target: T1, hNpr1 (Homo sapiens, UniProt P16066); test: GloSensor assay in 96-well format, HEK-hNpr1-cGMP-sensor cells; assay type: cell-based; design: Reversibility of hNpr1 inhibition after washing: dose or concentration left out as unconfirmed; conditions: for Imax [%] (mean ± SEM), GloSensor 96-well format / IC50: 60 pM hNppa 5 minutes after compound; for IC50: read-out: IC50 [μM] (mean ± SEM), GloSensor 96-well format; for Ki: calculated with Cheng-Prusoff equation from Table 3, read-out: Ki hNpr1 GloSensor™ [μM] (mean ± SEM)
T1 sequence (P16066 33-1061): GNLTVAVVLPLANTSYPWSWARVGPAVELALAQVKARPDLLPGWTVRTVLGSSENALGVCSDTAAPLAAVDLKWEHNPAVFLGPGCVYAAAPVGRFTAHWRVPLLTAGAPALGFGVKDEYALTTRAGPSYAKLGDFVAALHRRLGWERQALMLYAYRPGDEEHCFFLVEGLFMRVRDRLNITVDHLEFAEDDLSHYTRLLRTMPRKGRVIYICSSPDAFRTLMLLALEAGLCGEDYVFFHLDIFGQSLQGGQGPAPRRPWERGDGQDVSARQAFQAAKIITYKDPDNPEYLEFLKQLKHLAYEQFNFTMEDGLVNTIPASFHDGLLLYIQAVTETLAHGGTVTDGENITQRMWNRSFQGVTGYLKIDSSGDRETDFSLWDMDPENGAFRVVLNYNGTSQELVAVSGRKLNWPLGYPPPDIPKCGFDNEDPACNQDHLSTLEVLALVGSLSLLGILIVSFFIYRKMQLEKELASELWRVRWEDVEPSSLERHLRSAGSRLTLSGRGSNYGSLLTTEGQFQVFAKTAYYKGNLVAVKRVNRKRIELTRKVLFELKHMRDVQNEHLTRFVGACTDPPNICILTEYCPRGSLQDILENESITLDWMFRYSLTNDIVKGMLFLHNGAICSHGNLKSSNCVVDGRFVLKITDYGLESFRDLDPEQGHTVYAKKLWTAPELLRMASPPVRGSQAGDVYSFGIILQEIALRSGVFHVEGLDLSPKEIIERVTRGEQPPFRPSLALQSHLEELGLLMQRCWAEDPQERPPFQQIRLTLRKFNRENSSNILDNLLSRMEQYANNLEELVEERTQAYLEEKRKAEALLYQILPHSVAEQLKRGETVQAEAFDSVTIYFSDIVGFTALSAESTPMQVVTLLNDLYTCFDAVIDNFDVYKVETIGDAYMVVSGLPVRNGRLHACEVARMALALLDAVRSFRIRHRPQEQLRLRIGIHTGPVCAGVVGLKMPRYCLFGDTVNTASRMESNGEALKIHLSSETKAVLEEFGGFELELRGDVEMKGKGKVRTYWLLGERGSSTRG
Procedure: Before the measurement (24 hours in advance), 3×10^4 cells were seeded into white 96-well plates (PerkinElmer, Waltham, Mass.), coated with 0.1% poly(D-lysine), and assays conducted as recommended by the manufacturer (Promega). Medium was aspirated and cells were loaded for two hours at room temperature with 2% GoSensor™ reagent diluted in CO2-independent media (ThermoFisher) supplemented with 2 mM L-glutamine and 10% FBS (assay medium). Luminescence was measured on a BioTek Synergy™ NEO (Winooski, Vt.) plate reader at room temperature. After a baseline measurement of 3-5 minutes, assay medium as a control or assay medium with agonist was manually added, and luminescence was measured for 30 minutes at ˜ 1/60 Hz. For compounds tested for Npr1 and Npr2 inhibition, the compounds were added after baseline measurements, and luminescence was read for 5 minutes before addition of agonist. Luminescence was then normalized to baseline measurements and plotted against the time. Ligand-induced changes of cGMP production were quantified by determining the area under the curve. To determine efficacy and potency of agonists, ligand-induced changes were normalized to medium only addition and plotted against the ligand concentration. […] To quantify […] of compounds, compound-induced changes of agonist-induced cGMP production were normalized to vehicle controls, plotted against compound concentration, and fit with a four-parameter logistic regression. Effects of A-71915 on basal mNpr1 activity were fitted with a bell-shaped regression (equation indicated below).
Additional screens of the fifteen candidates corroborated hNpr1 inhibition. In particular, HEK-hNpr1-cGMP-sensor cells were seeded in 96-wells and stimulated with 60 pM hNppa 5 minutes after addition of candidate compounds or A-71915 and luminescence was measured for 30 minutes. Inhibitors were titrated to calculate apparent potency (IC50) and efficacy (Imax) of inhibition of hNppa-induced cGMP production.

[2] = biological target: T1, hNpr1; test: Cell-free hNpr1 membrane cyclase assay (cGMP ELISA); assay type: biochemical
[3] = Table 1, biochemical assay, read-out: IC50 biochem assay
[4] = calculated with Cheng-Prusoff equation from Table 4, read-out: Ki hNpr1 cyclase assay [μM] (mean ± SEM)
[5] = membranes of HEK-hNpr1-cGMP-sensor cells, hNppa-stimulated
[6] = membranes of HEK-hNpr1-cGMP-sensor cells, hNppa-stimulated, read-out: IC50 [μM] (mean ± SEM), membrane cyclase assay

Compound	Imax [%] (mean ± SEM), GloSensor 96-well format [1]	IC50 [1] [µM]	Ki [1] [µM]	IC50 [2, 3] [µM]	Ki [2, 4] [µM]	Imax [%] (mean ± SEM), membrane cyclase assay [2, 5]	IC50 [2, 6] [µM]	Effect on hNppa concentration-response at fixed antagonist concentration ([1]; 5 μM antagonist, increasing hNppa, GloSensor and membrane cyclase assays (FIGS. 5B-C))	Reversibility of hNpr1 inhibition after washing ([1]; 5 minutes compound, 5-minute washing step, then hNppa)	Basal (unstimulated) hNpr1 activity ([1]; HEK-hNpr1-cGMP-sensor cells, no agonist)	Ki [2] [µM]	IC50 ([2]; IC50 [μM] (mean ± SEM), membrane cyclase assay, membranes of HEK-hNpr1-cGMP-sensor cells, hNppa-stimulated) [µM]	IC50 ([2]; IC50 biochem assay (M), Table 1, biochemical assay) [µM]
N#Cc1ccccc1CN1CCCC(C(=O)NCc2ccccc2)CCNC(=O)CC1 (stereo not shown) [JS-13, N-benzyl-1-(2-cyanobenzyl)-4-oxo-1,5-diazacycloundecane-8-carboxamide]	−96.1 ± 0.4	1.1 ± 0.1	0.18 ± 0.011	1.19	0.12 ± 0.13	−94.4 ± 5.4	0.8 ± 0.9	–	–	–	–	–	–
O=C(NCc1cccnc1)c1cnc2[nH]nc(-c3ccccc3)c2n1 [JS-7, 3-phenyl-N-(pyridin-3-ylmethyl)-1H-pyrazolo[3,4-b]pyrazine-5-carboxamide]	–	1.2 ± 0.5	0.19 ± 0.085	0.122	0.02 ± 0.044	−98.4 ± 1.5	0.1 ± 0.3	–	–	–	–	–	–
Cc1nn2c(c1-c1ccccc1OCc1ccccc1)N(C(=O)Cc1ccc3c(c1)OCO3)CCC2 [JS-8, 2-(benzo[d][1,3]dioxol-5-yl)-1-(3-(2-(benzyloxy)phenyl)-2-methyl-6,7-dihydropyrazolo[1,5-a]pyrimidin-4(5H)-yl)ethan-1-one]	−98.8 ± 0.7	1.2 ± 0.1	0.2 ± 0.013	0.336	0.05 ± 0.064	−98.0 ± 2.0	0.3 ± 0.4	reduced maximal responses even at extremely high hNppa concentrations	a single washing step was sufficient to completely recover hNpr1 activity; also recorded: reversible	dose dependently inhibited	–	–	–
COc1ccc(C2(C(=O)N3CCC4(CC3)c3nccn3-c3ccccc3CN4C)CC2)cc1 [JS-12, (1-(4-methoxyphenyl)cyclopropyl)(5-methyl-5,6-dihydrospiro[benzo[f]imidazo[1,2-a][1,4]diazepine-4,4′-piperidin]-1′-yl)methanone]	−96.0 ± 1.3	1.3 ± 0.002	0.21 ± 0.0002	–	–	−99.0 ± 1.0	–	–	–	–	0.1 ± 0.015	0.7 ± 0.1	0.614
Cc1nn2c(c1-c1ccccc1Oc1ccccc1)N(C(=O)Cc1ccc3c(c1)OCO3)CCC2 [JS-10, 2-(benzo[d][1,3]dioxol-5-yl)-1-(2-methyl-3-(2-phenoxyphenyl)-6,7-dihydropyrazolo[1,5-a]pyrimidin-4(5H)-yl)ethan-1-one]	−98.3 ± 1.7	6.7 ± 6.7	1.07 ± 1.08	0.744	0.11 ± 0.09	−95.2 ± 3.3	0.7 ± 0.6	–	–	–	–	–	–
CN(Cc1ccccc1)C(=O)c1cn2ccnc(-c3ccccc3)c2n1 [JS-14, N-benzyl-N-methyl-8-phenylimidazo[1,2-a]pyrazine-2-carboxamide]	–	3.1 ± 1.1	0.5 ± 0.179	18.6	1.87 ± 0.723	−99.0 ± 0.0	12.7 ± 4.9	–	–	–	–	–	–
